Results: ChEMBL document CHEMBL3045568, “Novel 2-pyrazoline derivatives as potential anticonvulsant agents” (Med Chem Res, 2013)
Activity calls are given as the source filed them. No cut-off for these calls is given here.

Legend:
[1] = system: Mus musculus; assay: Anticonvulsant activity in albino Mus musculus (mouse) assessed as protection against maximal electroshock-induced seizures at 30 mg/kg, ip after 0.5 hr relative to control; type: functional, organism-based; set-up: dose 30 mg/kg
[2] = Partition coefficient, log P of the compound; type: physicochemical; settings: octanol/water
[3] = system: Mus musculus; assay: Neurotoxicity in albino Mus musculus (mouse) assessed as motor impairment at 100 mg/kg, ip after 0.5 hr relative to control; type: toxicity, organism-based; set-up: dose 100 mg/kg, route intraperitoneal; settings: in vivo
[4] = system: Mus musculus; assay: Neurotoxicity in albino Mus musculus (mouse) assessed as motor impairment at 30 mg/kg, ip after 0.5 hr relative to control; type: toxicity, organism-based; set-up: dose 30 mg/kg, route intraperitoneal; settings: in vivo
[5] = system: Mus musculus; assay: Anticonvulsant activity in albino Mus musculus (mouse) assessed as protection against subcutaneous pentylenetetrazol-induced seizures at 300 mg/kg, ip after 4 hr relative to control; type: functional, organism-based; set-up: dose 300 mg/kg
[6] = system: Mus musculus; assay: Anticonvulsant activity in albino Mus musculus (mouse) assessed as protection against subcutaneous pentylenetetrazol-induced seizures at 100 mg/kg, ip after 4 hr relative to control; type: functional, organism-based; set-up: dose 100 mg/kg
[7] = system: Mus musculus; assay: Anticonvulsant activity in albino Mus musculus (mouse) assessed as protection against subcutaneous pentylenetetrazol-induced seizures at 30 mg/kg, ip after 4 hr relative to control; type: functional, organism-based; set-up: dose 30 mg/kg
[8] = system: Mus musculus; assay: Anticonvulsant activity in albino Mus musculus (mouse) assessed as protection against subcutaneous pentylenetetrazol-induced seizures at 300 mg/kg, ip after 0.5 hr relative to control; type: functional, organism-based; set-up: dose 300 mg/kg
[9] = system: Mus musculus; assay: Anticonvulsant activity in albino Mus musculus (mouse) assessed as protection against subcutaneous pentylenetetrazol-induced seizures at 100 mg/kg, ip after 0.5 hr relative to control; type: functional, organism-based; set-up: dose 100 mg/kg
[10] = system: Mus musculus; assay: Anticonvulsant activity in albino Mus musculus (mouse) assessed as protection against subcutaneous pentylenetetrazol-induced seizures at 30 mg/kg, ip after 0.5 hr relative to control; type: functional, organism-based; set-up: dose 30 mg/kg
[11] = system: Mus musculus; assay: Anticonvulsant activity in albino Mus musculus (mouse) assessed as protection against maximal electroshock-induced seizures at 300 mg/kg, ip after 4 hr relative to control; type: functional, organism-based; set-up: dose 300 mg/kg
[12] = system: Mus musculus; assay: Anticonvulsant activity in albino Mus musculus (mouse) assessed as protection against maximal electroshock-induced seizures at 100 mg/kg, ip after 4 hr relative to control; type: functional, organism-based; set-up: dose 100 mg/kg
[13] = system: Mus musculus; assay: Anticonvulsant activity in albino Mus musculus (mouse) assessed as protection against maximal electroshock-induced seizures at 30 mg/kg, ip after 4 hr relative to control; type: functional, organism-based; set-up: dose 30 mg/kg
[14] = system: Mus musculus; assay: Anticonvulsant activity in albino Mus musculus (mouse) assessed as protection against maximal electroshock-induced seizures at 300 mg/kg, ip after 0.5 hr relative to control; type: functional, organism-based; set-up: dose 300 mg/kg
[15] = system: Mus musculus; assay: Anticonvulsant activity in albino Mus musculus (mouse) assessed as protection against maximal electroshock-induced seizures at 100 mg/kg, ip after 0.5 hr relative to control; type: functional, organism-based; set-up: dose 100 mg/kg
[16] = system: Mus musculus; assay: Neurotoxicity in albino Mus musculus (mouse) assessed as motor impairment at 300 mg/kg, ip after 4 hr relative to control; type: toxicity, organism-based; set-up: dose 300 mg/kg, route intraperitoneal; settings: in vivo
[17] = system: Mus musculus; assay: Neurotoxicity in albino Mus musculus (mouse) assessed as motor impairment at 100 mg/kg, ip after 4 hr relative to control; type: toxicity, organism-based; set-up: dose 100 mg/kg, route intraperitoneal; settings: in vivo
[18] = system: Mus musculus; assay: Neurotoxicity in albino Mus musculus (mouse) assessed as motor impairment at 30 mg/kg, ip after 4 hr relative to control; type: toxicity, organism-based; set-up: dose 30 mg/kg, route intraperitoneal; settings: in vivo
[19] = system: Mus musculus; assay: Neurotoxicity in albino Mus musculus (mouse) assessed as motor impairment at 300 mg/kg, ip after 0.5 hr relative to control; type: toxicity, organism-based; set-up: dose 300 mg/kg, route intraperitoneal; settings: in vivo
[20] = system: Mus musculus; assay: Anticonvulsant activity in albino Mus musculus (mouse) assessed as protection against subcutaneous pentylenetetrazol-induced seizures at 30 mg/kg, sc after 4 hr relative to control; type: functional, organism-based; set-up: dose 30 mg/kg
[21] = system: Mus musculus; assay: Anticonvulsant activity in albino Mus musculus (mouse) assessed as protection against subcutaneous pentylenetetrazol-induced seizures at 30 mg/kg, sc after 0.5 hr relative to control; type: functional, organism-based; set-up: dose 30 mg/kg
[22] = system: Mus musculus; assay: Anticonvulsant activity in albino Mus musculus (mouse) assessed as protection against maximal electroshock-induced seizures at 30 mg/kg, sc after 4 hr relative to control; type: functional, organism-based; set-up: dose 30 mg/kg
[23] = system: Mus musculus; assay: Anticonvulsant activity in albino Mus musculus (mouse) assessed as protection against maximal electroshock-induced seizures at 30 mg/kg, sc after 0.5 hr relative to control; type: functional, organism-based; set-up: dose 30 mg/kg
[24] = system: Mus musculus; assay: Neurotoxicity in albino Mus musculus (mouse) assessed as motor impairment at 30 mg/kg, sc after 4 hr relative to control; type: toxicity, organism-based; set-up: dose 30 mg/kg, route subcutaneous; settings: in vivo
[25] = system: Mus musculus; assay: Neurotoxicity in albino Mus musculus (mouse) assessed as motor impairment at 30 mg/kg, sc after 0.5 hr relative to control; type: toxicity, organism-based; set-up: dose 30 mg/kg, route subcutaneous; settings: in vivo

Structure (SMILES) | Activity [1] | logP [2] | Activity [3] | Activity [4] | Activity [5] | Activity [6] | Activity [7] | Activity [8] | Activity [9] | Activity [10] | Activity [11] | Activity [12] | Activity [13] | Activity [14] | Activity [15] | Activity [16] | Activity [17] | Activity [18] | Activity [19] | other results
CCNC(=S)N1N=C(c2ccccn2)CC1c1ccc(OCc2ccccc2)cc1 (centres undefined) | inactive | 1.46 | Non-toxic | Non-toxic | inactive | inactive | inactive | Active | inactive | inactive | inactive | inactive | inactive | Active | Active | Non-toxic | Non-toxic | Non-toxic |  | 
CCNC(=S)N1N=C(c2ccccn2)CC1c1ccc(OC)cc1 (centres undefined) | inactive | 2.92 | Non-toxic | Non-toxic | Active | inactive | inactive | Active | Active | Active | inactive | inactive | inactive | inactive | inactive | Non-toxic | Non-toxic | Non-toxic | Non-toxic | 
NC(=S)N1N=C(c2ccccn2)CC1c1cccc(Cl)c1 (centres undefined) | Active | 4.15 | Non-toxic | Non-toxic | Active | inactive | inactive | Active | inactive | inactive | Active | inactive | inactive | Active | Active | Non-toxic | Non-toxic | Non-toxic |  | 
CCNC(=S)N1N=C(c2ccccn2)CC1c1ccc(Cl)cc1 (centres undefined) | inactive | 3.64 | Non-toxic | Non-toxic | inactive | inactive | inactive | Active | inactive | inactive | inactive | inactive | inactive | Active | Active | Non-toxic | Non-toxic | Non-toxic | Non-toxic | 
CCNC(=S)N1N=C(c2ccccn2)CC1c1cccc(Cl)c1 (centres undefined) | inactive | 3.2 | Non-toxic | Non-toxic | inactive | inactive | inactive | Active | inactive | inactive | inactive | inactive | inactive | Active | Active | Non-toxic | Non-toxic | Non-toxic |  | 
NC(=S)N1N=C(c2ccccn2)CC1c1cccc2ccccc12 (centres undefined) | Active | 4.51 | Non-toxic | Non-toxic | Active | inactive | inactive | Active | Active | inactive | Active | Active | inactive | Active | Active | Non-toxic | Non-toxic | Non-toxic | Non-toxic | 
NC(=S)N1N=C(c2ccccn2)CC1c1ccc(OCc2ccccc2)cc1 (centres undefined) | inactive | 1.17 | Toxic |  | inactive | inactive | inactive | inactive | inactive | inactive | inactive | inactive | inactive | inactive | inactive |  |  | Non-toxic | Toxic | 
CCC1(c2ccccc2)C(=O)NC(=O)NC1=O [PHENOBARBITAL] |  |  |  |  |  |  |  |  |  |  |  |  |  |  |  |  |  |  |  | Activity [20]: Active; Activity [21]: Active; Activity [22]: Active; Activity [23]: Active; Activity [24]: Non-toxic; Activity [25]: Non-toxic
NC(=S)N1N=C(c2ccccn2)CC1c1ccc(Cl)cc1 (centres undefined) | inactive | 4.21 | Non-toxic | Non-toxic | inactive | inactive | inactive | Active | inactive | inactive | Active | inactive | inactive | Active | Active | Non-toxic | Non-toxic | Non-toxic |  | 
CCNC(=S)N1N=C(c2ccccn2)CC1c1cccc2ccccc12 (centres undefined) | inactive | 4.7 | Non-toxic | Non-toxic | Active | inactive | inactive | Active | Active | inactive | Active | inactive | inactive | Active | Active | Non-toxic | Non-toxic | Non-toxic | Non-toxic | 
COc1ccc(C2CC(c3ccccn3)=NN2C(N)=S)cc1 (centres undefined) | inactive | 2.82 | Non-toxic | Non-toxic | inactive | inactive | inactive | Active | Active | inactive | inactive | inactive | inactive | inactive | inactive | Non-toxic | Non-toxic | Non-toxic | Non-toxic | 
